The values below are quoted from earlier work in patent publication US10034966B2, “Coated vaso-occlusive device and methods for treatment of aneurysms” (Carnegie Mellon University, priority 2013, dated 2018).

The subject of this series is L929 fibroblasts.

As to `COC(=O)C1=CO[C@@H](O)[C@@H]2C(CO)=CC[C@H]12` [genipin, methyl (1S,2R,6S)-2-hydroxy-9-(hydroxymethyl)-3-oxabicyclo[4.3.0]nona-4,8-diene-5-carboxylate], the “cell death to L929 fibroblasts” value (exposures of 5 mM and 10 mM) was “can cause cell death”. Besides, the “cytotoxicity, cell samples compared with controls” value (incubated in 1 mM) is listed as “indistinguishable from controls”.
